The structures appear in SMILES notation.

In general, pKb refers to the negative decadic logarithm of the Kb, by convention in mol/L. A high value points to a small Kb. The term Ki denotes a dissociation constant, usually derived from enzyme kinetics or from competition with a known ligand. Lower therefore signals higher affinity. What is called EC50 is the concentration giving half of the maximal effect. Higher therefore signals a less potent agent.

The target of test [1] is 5-hydroxytryptamine receptor 4 (Rattus norvegicus) (UniProt Q62758). Put plainly: Compound was tested against 5-HT4 receptor through antagonism of 5-HT mediated relaxation of rat, carbachol contracted esophageal muscularis mucosae. Type of test: functional.
5-hydroxytryptamine receptor 4 (Rattus norvegicus), sequence (Q62758 whole entry): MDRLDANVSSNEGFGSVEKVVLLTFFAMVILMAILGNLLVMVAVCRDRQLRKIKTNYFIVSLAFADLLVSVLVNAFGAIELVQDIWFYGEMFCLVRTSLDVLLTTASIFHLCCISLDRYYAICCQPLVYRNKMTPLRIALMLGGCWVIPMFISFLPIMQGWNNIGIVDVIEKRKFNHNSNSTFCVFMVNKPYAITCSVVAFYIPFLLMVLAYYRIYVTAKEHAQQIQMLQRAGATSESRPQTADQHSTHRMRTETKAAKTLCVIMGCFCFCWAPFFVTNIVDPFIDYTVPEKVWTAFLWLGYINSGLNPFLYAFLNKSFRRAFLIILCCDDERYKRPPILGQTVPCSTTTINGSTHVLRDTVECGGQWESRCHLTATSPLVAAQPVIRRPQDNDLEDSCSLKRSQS
The target of test [2] is 5-hydroxytryptamine receptor 4 (Cavia porcellus, UniProt O70528). Put plainly: Compound was tested for binding affinity against 5-HT4 receptor in guinea pig striata using [3H]GR-113808 as radioligand.
5-hydroxytryptamine receptor 4 (Cavia porcellus, UniProt O70528), sequence (O70528 whole entry): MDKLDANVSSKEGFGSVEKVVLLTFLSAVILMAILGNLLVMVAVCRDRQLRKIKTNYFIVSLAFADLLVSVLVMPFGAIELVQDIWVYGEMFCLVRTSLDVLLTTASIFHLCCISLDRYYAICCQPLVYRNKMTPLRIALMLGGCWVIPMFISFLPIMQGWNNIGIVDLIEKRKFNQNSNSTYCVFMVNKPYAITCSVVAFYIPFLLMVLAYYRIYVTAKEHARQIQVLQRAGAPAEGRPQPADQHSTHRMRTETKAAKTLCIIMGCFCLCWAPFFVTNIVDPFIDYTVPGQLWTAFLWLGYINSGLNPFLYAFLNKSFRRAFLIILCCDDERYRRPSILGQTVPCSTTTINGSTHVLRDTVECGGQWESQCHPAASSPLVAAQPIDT
For test [3], the target named is 5-hydroxytryptamine receptor 4 (Rattus norvegicus, UniProt Q62758). Put plainly: Compound was tested against 5-HT4 receptor through agonism of 5-HT mediated relaxation of rat, carbachol contracted esophageal muscularis mucosae. The test is classed as functional.
5-hydroxytryptamine receptor 4 (Rattus norvegicus, UniProt Q62758), sequence (Q62758 whole entry): as the sequence (Q62758 whole entry) above

Take `COc1cc(COc2cc(N)c(Cl)cc2C(=O)CCCCN2CCC(CCNS(C)(=O)=O)CC2)cc(OC)c1`: in test [1], the negative logarithm of the Kb (pKb) came out at 8.1.
The molecule `CCCCN1CCC(CCC(=O)c2cc(Cl)c(N)cc2OCc2cc(OC)cc(OC)c2)CC1` gave a negative-log Kb (pKb) in test [1] of 8.9. This molecule gave an inhibition constant (Ki) in test [2] of 0.479 nM.
On to `COc1cc(COc2cc(N)c(Cl)cc2C(=O)CCCCN2CCC(OC)CC2)cc(OC)c1`, for which the pKb in test [1] is 8.4.
In turn, `COc1cc(COc2cc(N)c(Cl)cc2C(=O)CCC2CCN(CCNS(C)(=O)=O)CC2)cc(OC)c1` gave a pKb in test [1] of 9.2. In addition, in test [2], the Ki was 0.741 nM.
In turn, `CCCCN1CCC(COC(=O)c2cc(Cl)c(N)c3c2OCCO3)CC1` had a Ki in test [2] of 0.0129 nM.
`CCOc1cc(N)c(Cl)cc1C(=O)CCCCN1CCCCC1`: the pKb in test [1] is < 7.
The same measure, in the same setting: the figure for `COc1cc(COc2cc(N)c(Cl)cc2C(=O)CCCCN2CCC(O)CC2)cc(OC)c1` is 8.3; for `CCCC1CCN(CCCCC(=O)c2cc(Cl)c(N)cc2OCc2cc(OC)cc(OC)c2)CC1` it is 7.7.
`COc1cc(COc2cc(N)c(Cl)cc2C(=O)CCC2CCN(CCN(C)S(C)(=O)=O)CC2)cc(OC)c1` displayed a pKb in test [1] of 9.1. Besides, the affinity in test [2] corresponds to a Ki of 0.468 nM.
Turning to `COc1cc(COc2cc(N)c(Cl)cc2C(=O)CCCCN2CCCCC2)cc(OC)c1`, in test [1], the pKb turned out to be 8.5.
`CCCCCN1CCC(CCC(=O)c2cc(Cl)c(N)cc2OCc2cc(OC)cc(OC)c2)CC1` gave a pKb in test [1] of 9.1. In addition, in test [2], the inhibition constant Ki is 0.813 nM.
`COc1cc(COc2cc(N)c(Cl)cc2C(=O)CCC2CCN(CCCNS(C)(=O)=O)CC2)cc(OC)c1` registered a pKb in test [1] of 8.8. The molecule further gave a Ki in test [2] of 0.339 nM.
The molecule `COc1ccc(COc2cc(N)c(Cl)cc2C(=O)CCCCN2CCCCC2)cc1OC` showed a pKb in test [1] of 8.5.
Same read-out and setting: the figure for `COc1cc(COc2cc(N)c(Cl)cc2C(=O)CCCCN2CCC(C(N)=O)CC2)cc(OC)c1` is 8.4.
The same measure, in the same setting: the figure for `COc1cc(COc2cc(N)c(Cl)cc2C(=O)CCCCN2CCC(NS(C)(=O)=O)CC2)cc(OC)c1` is 8.4.
`CCCOc1cc(N)c(Cl)cc1C(=O)CCCCN1CCCCC1` had a concentration for a half-maximal effect (EC50) in test [3] of 2000 nM.
As to `CS(=O)(=O)NCCN1CCC(CCC(=O)c2cc(Cl)c(N)cc2OCc2ccccc2)CC1`, the pKb in test [1] was 8.1. The same molecule gave a Ki in test [2] of 1.78 nM.
`COc1cc(N)c(Cl)cc1C(=O)CCCCN1CCCCC1` gave an EC50 in test [3] of 39.8 nM.
On to `COc1cc(COc2cc(N)c(Cl)cc2C(=O)CCCCN2CCC(c3ccccc3)CC2)cc(OC)c1`, for which, in test [1], the pKb was determined as 7.7.
Regarding `COc1cc(COc2cc(N)c(Cl)cc2C(=O)CCCCN2CCC(C)CC2)cc(OC)c1`, the pKb in test [1] worked out at 8.3.
The same measure, in the same setting: the same measure for `COc1cc(COc2cc(N)c(Cl)cc2C(=O)CCCCN2CCC(NC(N)=O)CC2)cc(OC)c1`: 8.5.
Still for that read-out and setting: the figure for `Cn1cc(C(=O)OCC2CCN(CCNS(C)(=O)=O)CC2)c2ccccc21` is 9.
In turn, `COc1ccc(COc2cc(N)c(Cl)cc2C(=O)CCCCN2CCCCC2)cc1` showed a negative logarithm of the Kb (pKb) in test [1] of 8.4.
Same read-out and setting: the figure for `COc1cc(COc2cc(N)c(Cl)cc2C(=O)CCCCN2CCC(CNS(C)(=O)=O)CC2)cc(OC)c1` is 8.9; for `COc1ccc(CCOc2cc(N)c(Cl)cc2C(=O)CCCCN2CCCCC2)cc1OC` it is 6.8.

(Values after ChEMBL document CHEMBL1152051, “Synthesis and preliminary pharmacological evaluation of 2-benzyloxy substituted aryl ketones as 5-HT4 receptor antagonists” (Bioorg Med Chem Lett, 1994).)
